In US20240390414A1 (priority 2023, published 2024):

Columns and labels:
[1] = corn and wheat samples; cited from earlier work
[2] = system: differentiated human derived cell lines; conditions: glial cells activated by LPS/IFNγ or IFNγ and treated with STS; cited from earlier work
[3] = Excerpt: With or without one or more of the following adjuvant cofactors given one to three times daily
I did Viome testing and must avoid some foods and take pre and pro biotics that they recommend.

[4] = system: human microglia and astrocytes; conditions: cited from earlier work
[5] = 2018 study, cited from earlier work
[6] = cited from earlier work

Row | Structure (SMILES) | levels of aflatoxins, ochratoxin A, and zearalenone [1] | neuroprotection [2] | changes observed (patient questionnaire comment) ([3]; in combination with sporanox) | stimming reduced ([3]; on day 1, one patient's comment) | reduction in finger flicking and finger writing stimming ([3]; one patient's comment) | H2S and GSH expression [4] | toxicity of deoxynivalenol (DON) ([5]; Journal of Environmental Science and Health) | levels of oxidative stress and inflammation caused by DON exposure [5] | treatment for calciphylaxis ([6]; Ackermann et al. 2007) | treatment for vascular calcification ([6]; O'Neill 2008) | prevention of platinum-induced ototoxicity and nephrotoxicity ([6]; Skinner 1995)
1 | O=S([O-])([O-])=S.[Na+].[Na+] [STS, Sodium thiosulfate] | significantly reduce the levels | significant enhancement of neuroprotection | more aware and more present | 80-90% | 30 to 40% | increases | reduced the toxicity | able to reduce the levels of oxidative stress and inflammation | – | – | –
2 | O.O.O.O.O.O=S([O-])([O-])=S.[Na+].[Na+] [sodium thiosulfate pentahydrate] | – | – | – | – | – | – | – | – | effective treatment for calciphylaxis | effective treatment for vascular calcification | effective treatment to prevent platinum-induced ototoxicity and nephrotoxicity
